Assay results from US20240217989A1, “Heteroaryl Fluoroalkenes As DGK Inhibitors” (Incyte Corporation, priority 2022, published 2024).
pIC50: −log10 of the molar value.

Tests used:
DGKα = biological target: T1, DGKα (Homo sapiens, UniProt P23743); experiment: In vitro DGKα inhibition assay (ADP-Glo); format: biochemical; conditions: His-tagged human recombinant enzyme; 0.1 nM DGKα, 50 μM ATP, 20 μM DLG; 90 minute incubation; ADP-Glo luminescence
T1 construct: His; purchased Signal Chem D21-10BH
Description: (§1) The DGKα and DGKζ biochemical reactions were performed using His-tagged human recombinant enzymes (Signal Chem, DGKα, #D21-10BH; DGKζ, #D30-10H)) and DLG (Dilauroyl-sn-glycerol) lipid substrate (Signal Chem, #D430-59). ADP-Glo assay was performed using ADP-Glo™ kinase Assay kit (Promega, #V9104). The reactions were carried out in assay buffer containing 40 mM Tris, pH 7.5, 0.1% CHAPS, 0.1% Prionex, 40 mM NaCl, 5 mM MgCl2, 1 mM CaCl2, and 1 mM DTT. DGKα reactions contained 0.1 nM DGKα, 50 μM ATP, and 20 μM DLG. And DGKζ reactions contained 0.4 nM DGKζ, 30 μM ATP, and 20 μM DLG. For compound inhibition studies, 40 nL test compound in DMSO was added to wells of white polystyrene plates in 384-well (Greiner, #784075) or 1536-well format (Greiner, #782075). Compounds were added with top concentration of 2 mM with 11 point, 3-fold dilution series. Enzyme solution (contains 2× DGK enzyme concentration in 1× assay buffer) was added to the plate in 2 μL/well volume, followed by 2 μL/well of substrate solution (contains 2× concentration of ATP and DLG substrate in 1× assay buffer). Plates were then centrifuged for 1 min at 1200 RPM and sealed or lidded. For 4 μL reaction volume, test compounds were therefore diluted 100× to final top concentration of 20 μM. After 90 minute incubation, reactions were quenched by addition of 2 μL/well Promega ADP-Glo Reagent, followed by centrifugation and lidding. After 60 min incubation, 2 μL/well Promega Kinase Detection Reagent was added, plates centrifuged, and incubated for 30 min. Plates were then read using Luminescence method on BMG PHERAstar FSX plate reader. Percent inhibition was calculated and IC50s were determined using 4-parameter fit in Genedata Screener. Labcyte Echo acoustic dispenser was used for compound addition, and Formulatrix Tempest liquid handler was used for all reagent dispenses.

DGKζ = DGKζ (Homo sapiens, UniProt Q13574); experiment: In vitro DGKζ inhibition assay (ADP-Glo); format: biochemical; conditions: His-tagged human recombinant enzyme; 0.4 nM DGKζ, 30 μM ATP, 20 μM DLG; 90 minute incubation; ADP-Glo luminescence
Description: as §1

Sequence of DGKζ (Q13574 whole entry): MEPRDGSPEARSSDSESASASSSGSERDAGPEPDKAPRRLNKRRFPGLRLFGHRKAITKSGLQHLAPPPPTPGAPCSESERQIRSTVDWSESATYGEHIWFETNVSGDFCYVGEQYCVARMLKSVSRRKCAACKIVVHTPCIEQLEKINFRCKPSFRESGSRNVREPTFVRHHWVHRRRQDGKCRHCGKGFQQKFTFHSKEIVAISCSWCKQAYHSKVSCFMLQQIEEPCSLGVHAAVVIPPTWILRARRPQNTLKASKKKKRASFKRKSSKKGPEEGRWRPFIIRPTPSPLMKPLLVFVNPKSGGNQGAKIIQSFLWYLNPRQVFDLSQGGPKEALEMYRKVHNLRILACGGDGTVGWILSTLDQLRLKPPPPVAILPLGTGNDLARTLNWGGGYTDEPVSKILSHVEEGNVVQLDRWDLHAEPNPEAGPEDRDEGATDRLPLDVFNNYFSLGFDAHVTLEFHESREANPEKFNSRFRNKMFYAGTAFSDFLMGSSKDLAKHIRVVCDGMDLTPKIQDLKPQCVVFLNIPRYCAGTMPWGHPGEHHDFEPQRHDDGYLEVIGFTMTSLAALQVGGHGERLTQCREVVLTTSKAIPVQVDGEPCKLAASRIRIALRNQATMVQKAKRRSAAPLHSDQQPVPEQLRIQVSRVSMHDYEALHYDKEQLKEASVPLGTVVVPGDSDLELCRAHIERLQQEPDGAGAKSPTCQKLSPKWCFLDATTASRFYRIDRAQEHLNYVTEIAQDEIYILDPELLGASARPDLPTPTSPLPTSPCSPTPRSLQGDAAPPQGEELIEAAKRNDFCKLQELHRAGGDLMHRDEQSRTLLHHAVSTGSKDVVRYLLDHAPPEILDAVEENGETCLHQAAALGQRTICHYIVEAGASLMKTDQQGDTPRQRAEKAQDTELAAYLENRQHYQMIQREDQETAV
T1 sequence (P23743 whole entry): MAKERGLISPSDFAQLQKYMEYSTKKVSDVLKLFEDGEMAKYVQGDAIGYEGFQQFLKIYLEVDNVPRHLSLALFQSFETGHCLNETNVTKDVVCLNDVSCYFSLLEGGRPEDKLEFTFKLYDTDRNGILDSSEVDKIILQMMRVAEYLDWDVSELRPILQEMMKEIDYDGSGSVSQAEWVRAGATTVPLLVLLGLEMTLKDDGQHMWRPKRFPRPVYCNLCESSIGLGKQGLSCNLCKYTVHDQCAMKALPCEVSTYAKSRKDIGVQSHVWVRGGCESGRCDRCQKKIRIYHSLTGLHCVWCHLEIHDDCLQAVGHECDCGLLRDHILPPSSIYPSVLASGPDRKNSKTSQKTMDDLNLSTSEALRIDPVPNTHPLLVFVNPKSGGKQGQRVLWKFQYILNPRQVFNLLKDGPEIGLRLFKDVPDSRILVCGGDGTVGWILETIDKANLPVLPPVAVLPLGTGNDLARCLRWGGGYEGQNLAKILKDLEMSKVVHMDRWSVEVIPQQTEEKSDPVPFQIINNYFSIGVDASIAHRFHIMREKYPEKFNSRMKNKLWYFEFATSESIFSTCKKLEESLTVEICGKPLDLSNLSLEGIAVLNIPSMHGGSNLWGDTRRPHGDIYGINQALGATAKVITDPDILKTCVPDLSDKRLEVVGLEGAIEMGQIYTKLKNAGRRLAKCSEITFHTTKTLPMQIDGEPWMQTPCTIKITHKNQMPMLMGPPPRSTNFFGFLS

pIC50 (DGKα) | pIC50 (DGKζ) | Compound
≥ 7.70 | ≥ 7.70 | F/C(=C\c1ccc(Oc2ccccc2F)c(C(F)(F)F)c1N1CCOC2(CCN(CC3CC3)CC2)C1)c1nccc(-c2ccnnc2)n1 [Example 42, (Z)-9-(Cyclopropylmethyl)-4-(6-(2-fluoro-2-(4-(pyridazin-4-yl)pyrimidin-2-yl)vinyl)-3-(2-fluorophenoxy)-2-(trifluoromethyl)phenyl)-1-oxa-4,9-diazaspiro[5.5]undecane]
≥ 7.70 | ≥ 7.70 | NC[C@@H]1CCCN(c2c(/C=C(\F)c3nccc(-c4ccnnc4)n3)ccc(Oc3ccccc3)c2C(F)(F)F)C1 [Example 43, (S,Z)-(1-(6-(2-Fluoro-2-(4-(pyridazin-4-yl)pyrimidin-2-yl)vinyl)-3-phenoxy-2-(trifluoromethyl)phenyl)piperidin-3-yl)methanamine]
≥ 7.70 | ≥ 7.70 | CCN1CCC2(CCCN(c3c(/C=C(\F)c4cncc(N5CC(F)(F)C5)n4)ccc(Oc4ccccc4F)c3C(F)(F)F)C2)CC1 [Example 44, (Z)-2-(6-(2-(6-(3,3-Difluoroazetidin-1-yl)pyrazin-2-yl)-2-fluorovinyl)-3-(2-fluorophenoxy)-2-(trifluoromethyl)phenyl)-9-ethyl-2,9-diazaspiro[5.5]undecane]
≥ 7.70 | ≥ 7.70 | OCCN1CCC2(CCCN(c3c(/C=C(\F)c4nccc(-c5cnsc5)n4)ccc(Oc4ccccc4F)c3C(F)(F)F)C2)CC1 [Example 45, (Z)-2-(2-(6-(2-Fluoro-2-(4-(isothiazol-4-yl)pyrimidin-2-yl)vinyl)-3-(2-fluorophenoxy)-2-(trifluoromethyl)phenyl)-2,9-diazaspiro[5.5]undecan-9-yl)ethan-1-ol]
≥ 7.70 | ≥ 7.70 | CCN1CCC2(CCCN(c3c(/C=C(\F)c4nccc(-c5cnsc5)n4)ccc(Oc4ccccc4F)c3C(F)(F)F)C2)CC1 [Example 46, (Z)-4-(2-(2-(2-(9-Ethyl-2,9-diazaspiro[5.5]undecan-2-yl)-4-(2-fluorophenoxy)-3-(trifluoromethyl)phenyl)-1-fluorovinyl)pyrimidin-4-yl)isothiazole]
≥ 7.70 | ≥ 7.70 | F/C(=C\c1ccc(Oc2cccc(F)c2F)c(C(F)(F)F)c1N1CCCC2(CCN(CC3CC3)CC2)C1)c1cncc(-c2cnsc2)n1 [Example 47, (Z)-4-(6-(2-(2-(9-(Cyclopropylmethyl)-2,9-diazaspiro[5.5]undecan-2-yl)-4-(2,3-difluorophenoxy)-3-(trifluoromethyl)phenyl)-1-fluorovinyl)pyrazin-2-yl)isothiazole]
≥ 7.70 | ≥ 7.70 | F/C(=C\c1ccc(OC2CCCCC2)c(C(F)(F)F)c1N1CCCC2(CCN(CC3CC3)CC2)C1)c1cncc(-c2ccnnc2)n1 [Example 48, (Z)-2-(3-(Cyclohexyloxy)-6-(2-fluoro-2-(6-(pyridazin-4-yl)pyrazin-2-yl)vinyl)-2-(trifluoromethyl)phenyl)-9-(cyclopropylmethyl)-2,9-diazaspiro[5.5]undecane]
≥ 7.70 | ≥ 7.70 | F/C(=C\c1ccc(Oc2cccc(F)c2F)c(C(F)(F)F)c1N1CCCC2(CCN(CC3CC3)CC2)C1)c1cncc(-c2ccns2)n1 [Example 49, (Z)-5-(6-(2-(2-(9-(Cyclopropylmethyl)-2,9-diazaspiro[5.5]undecan-2-yl)-4-(2,3-difluorophenoxy)-3-(trifluoromethyl)phenyl)-1-fluorovinyl)pyrazin-2-yl)isothiazole]
≥ 7.70 | ≥ 7.70 | F/C(=C\c1ccc(OC2CCCCC2)c(C(F)(F)F)c1N1CCCC2(CCN(CC3CC3)CC2)C1)c1nccc(-c2ccnnc2)n1 [Example 50, (Z)-2-(3-(Cyclohexyloxy)-6-(2-fluoro-2-(4-(pyridazin-4-yl)pyrimidin-2-yl)vinyl)-2-(trifluoromethyl)phenyl)-9-(cyclopropylmethyl)-2,9-diazaspiro[5.5]undecane]
